Source: patent US7153961B2, “Salt and crystalline form thereof of a corticotropin releasing factor receptor antagonist” (Bristol-Myers Squibb Pharma Co., priority 2003, dated 2006)

What was measured:
[1] = hygroscopicity (uptake at 90% relative humidity); type: physicochemical
solubility = type: physicochemical; details: in e.g., polar solvents, water, glycols, and aqueous mixtures

For `COCCN(CCOC)c1nc(C)nc2c(-c3ccc(OC)cc3C)c(C)nn12.O=S(=O)(O)c1ccccc1` [polymorph H-1, 4-(bis(2-methoxyethyl)amino)-2,7-dimethyl-8-(2-methyl-4-methoxyphenyl)-[1,5-a]-pyrazolo-1,3,5-triazine benzenesulfonate], the “hygroscopicity (uptake)” value [1] was “less than 2%” and the solubility (solubility) was “soluble”.
